According to paper PMC6825221, “In silico re-engineering of a neurotransmitter to activate KCNQ potassium channels in an isoform-specific manner” (Communications Biology, 2019):
Where “and” joins values, the source holds several entries; their conditions need not be identical. Equal entries are not always repeated.

Target: T1, GLRA1 (Homo sapiens, UniProt P23415)
T1 sequence (P23415 29-457): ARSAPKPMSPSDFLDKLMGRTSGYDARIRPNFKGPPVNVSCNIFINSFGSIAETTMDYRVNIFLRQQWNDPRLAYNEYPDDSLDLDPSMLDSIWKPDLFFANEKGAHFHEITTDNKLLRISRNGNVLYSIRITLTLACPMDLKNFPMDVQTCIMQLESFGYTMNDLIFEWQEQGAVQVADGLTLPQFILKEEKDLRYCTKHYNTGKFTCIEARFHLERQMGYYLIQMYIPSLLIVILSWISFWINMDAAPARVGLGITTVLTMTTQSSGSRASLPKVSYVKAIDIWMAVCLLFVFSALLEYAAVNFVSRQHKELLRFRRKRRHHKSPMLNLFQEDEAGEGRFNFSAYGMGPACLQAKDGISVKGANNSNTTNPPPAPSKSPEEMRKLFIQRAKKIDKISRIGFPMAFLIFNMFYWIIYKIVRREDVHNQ
Experiment: TEVC of glycine receptor GLRA1 expressed in Xenopus oocytes
Format: cell-based
Text: We generated cRNA transcripts encoding human KCNQ1, KCNQ2, KCNQ3, KCNQ4, KCNQ5 or GLRA1 (NM_001146040) (GenScript, Piscataway, NJ, USA) by in vitro transcription using the T7 polymerase mMessage mMachine kit (Thermo Fisher Scientific), after vector linearization, from cDNA sub-cloned into plasmids incorporating Xenopus laevis β-globin 5′ and 3′ UTRs flanking the coding region to enhance translation and cRNA stability. We quantified cRNA by spectrophotometry. We generated mutant KCNQ2 and KCNQ3 cDNAs by site-directed mutagenesis using a QuikChange kit (Stratagene, San Diego, CA) and prepared the corresponding cRNAs as above. We injected defolliculated stage V and VI Xenopus laevis oocytes (Ecocyte Bioscience, Austin, TX and Xenoocyte, Dexter, MI) with KCNQ channel α subunit (5-20 ng) or GLRA1 (20 ng) cRNAs. We incubated the oocytes at 16 °C in Barth’s saline solution (Ecocyte Bioscience) containing penicillin and streptomycin, with daily washing, for 2–5 days prior to two-electrode voltage-clamp (TEVC) recording.
We performed TEVC at room temperature using an OC-725C amplifier (Warner Instruments, Hamden, CT) and pClamp10 software (Molecular Devices, Sunnyvale, CA) 2–5 days after cRNA injection as described in the section above. For recording, oocytes were placed in a small-volume oocyte bath (Warner) and viewed them with a dissection microscope. Chemicals were sourced from Sigma, Matrix Scientific and Santa Cruz. […] All stock solutions were diluted in bath solution on the day of experiments. KCNQ2/3 channel activation was screened for using either 30 µM or 100 µM concentrations of each of the six compounds, then dose responses were conducted as appropriate. Bath solution was (in mM): 96 NaCl, 4 KCl, 1 MgCl2, 1 CaCl2, 10 HEPES (pH 7.6). Compounds were introduced into the oocyte recording bath by gravity perfusion at a constant flow of 1 ml per minute for 3 min prior to recording. Pipettes were of 1–2 MΩ resistance when filled with 3 M KCl. Currents were recorded in response to voltage pulses between −120 or −80 mV and + 40 mV at 20 mV intervals from a holding potential of −80 mV, to yield current-voltage relationships, current magnitude, and for quantifying activation rate. We analyzed data using Clampfit (Molecular Devices) and Graphpad Prism software (GraphPad, San Diego, CA, USA); values are stated as mean ± SEM. We plotted raw or normalized tail currents versus prepulse voltage and fitted with a single Boltzmann function:1 g=(A1−A2)/1+exp(V12−V)∕VS+A2, where g is the normalized tail conductance, A1 is the initial value at −∞, A2 is the final value at +∞, V1/2 is the half-maximal voltage of activation and Vs the slope factor. Activation, deactivation, wash-in and washout kinetics were fitted with single exponential functions to yield a τ value.

In the case of `CS(=O)(=O)N(CC(=O)O)c1cccc(F)c1` [3FMSG], the “inhibition of glycine-activated GLRA1” value (100 µM, 1 mM glycine) is reported as 35-40% and ~ 40%, the “activation of GLRA1” value (1 mM, compound alone) is reported as “Neither compound activated GLRA1” and the “inhibition of the activation of GLRA1 by 1 mM glycine” value (each at 100 µM) is reported as “partially inhibited”.
